According to paper PMC11921695 (BMC Cancer, 2025):
Where “and” joins values, the source holds several entries; their conditions need not be identical. Identical values can stand only once.

Tests used:
[1] = tested on: patients with HIV-associated KS; test: Phase I 3 + 3 dose escalation: dose limiting toxicity, MTD/RP2D; format: in vivo, human; conditions: for occurrence of DLT: cycle 1
Procedure: The trial used a standard 3 + 3 rule-based dose escalation algorithm with four pre-defined dose levels. […] A dose of 75 mg once daily (od) provided a dose level below the starting dose should de-escalation be required.
The aim of the phase I component of the trial was to determine the maximum tolerated dose (MTD) of selumetinib in combination with ART, which was defined as the highest dose producing one or fewer DLT in six patients. This dose was defined as the recommended phase II dose (RP2D) for the subsequent phase II component of the trial. Patients recruited to phase I who received the RP2D as their initial dose were included in the phase II population for response analysis. Having completed six cycles of treatment, patients who responded to treatment were permitted to continue selumetinib with ART at the discretion of the treating physician. Patients concurrently received best supportive therapy according to institutional guidelines.
The occurrence of DLTs was used to evaluate the safety of each dose level and thereby determine the MTD which defined the RP2D.
• Haematological. • Absolute neutrophil count (ANC) < 1.0 × 10^9/L. • Febrile neutropenia (ANC < 1.0 × 10^9/L, fever ≥ 38 °C). • Platelets < 50 × 10^9/L. • Bleeding thought to be due to thrombocytopenia. • Non-haematological. • Diarrhoea ≥ grade 3 despite optimal loperamide use. • Rash ≥ grade 3. • Any grade 2 toxicity unacceptable to the patient that required a dose reduction. • Missing > 30% of treatment doses for toxicity reasons. • Any other grade 3 or 4 effects thought to be treatment related. • HIV control. • Clinically necessary change in ART drug levels due to detrimental alteration in HIV viral load and/or CD4 cell count.

[2] = tested on: HIV-associated Kaposi sarcoma; test: Progression-free survival (Kaplan-Meier); format: in vivo, human
[3] = tested on: patients with HIV-associated KS; test: Number of selumetinib cycles completed and reasons for discontinuation; format: in vivo; conditions: 6/16 participants
From the text: Reasons for discontinuation were reported in relation to the number of cycles received.

HIV-1 = test: HIV control: HIV-1 viral load; format: in vivo, human; conditions: during the trial, patients receiving selumetinib + ART
Procedure: (§1) HIV control was assessed by plotting longitudinal HIV-1 viral load and CD4 cell counts over time for the per-protocol population. Due to missing data at the pre-treatment cycle 1 […] visit, the CD4 cell counts from the screening visit were used as the baseline comparator. Paired t-tests were done to test the difference between CD4 cell counts at screening, cycle 3 day 22 and cycle 6 day 22. Due to multiple testing, a Bonferroni correction was applied to the significance threshold, calculated as 0.05 ÷ 2 = 0.025.
(§2) HIV-1 viral load and CD4 counts were measured as per standard of care at hospital sites. To measure the concentration of angiogenesis markers, 8.5 ml blood was collected in BD vacutainer no-additive serum tubes. Samples were kept at room temperature for 30 minutes before centrifugation at 2000 g for 20 minutes at room temperature. Serum samples were then stored at -80 °C prior to analysis. Serum Ang-1, Ang-2 and TIE levels were assessed using commercial ELISAs (Thermo Fisher Scientifc hAng-1 (EHANGPT1), R&D DuoSet Ang-2 (DY623), eBioscience hTIE2 (BMS2042)), according to manufacturer instructions at laboratories at the University of Sheffield.

CD4 cell counts = test: HIV control: CD4 cell counts; format: in vivo, human
Procedure: as §1, §2

[4] = Selumetinib and N-desmethyl selumetinib plasma levels (phase I pharmacokinetics); format: in vivo; conditions: for Selumetinib Concentration, 2 Hours Post-Dose / Selumetinib Concentration, 6 Hours Post-Dose / Selumetinib Concentration, Day 1 Pre-Dose: plasma, individual patients; for Selumetinib Concentration, 2 Hours Post-Dose / Selumetinib Concentration, 6 Hours Post-Dose: cycle 1 day 1
Procedure: Pharmacokinetic studies will be performed in phase I only . […]
compartmental analysis will estimate C max, AUC0-24 , clearance and t1/2 from per ipheral blood measurements of both AZD 6244 and its metabolites pr e- dose, and at 2 and 6 hours post dose on day 1 and pre- dos e day 15. Labor atory bioanalysis will be performed by Quotient […]
• Samples to be collected Cycle 1 Day 1 Pre -treatment, 2 hours and 6 hours post dose (aft er f irst set of tablets) pre- dose Cycle 1 Day 15.
• 5mls of venous blood should be collected into a K2- ED TA BD vacutainer • Samples should be inverted several times to ensure adequate mix ing. […]
• 2x 500µ l of plasma should be aliquoted to polypropylene eppendorf tubes.
• Tubes should be individually labeled with the patient’s study number and sample time- point.
• Samples should be stored at - 200C.
• 1 x sample to be transferred on dry ice to Quotient Bioresearch for bioanalysis (all four sample time- points day 1 pre- d ose, and at 2 and 6 hours post d ose and pre- dose day 1 5 can be shipped together – please refer to the Laboratory Manual for c ourier details).
• 1 x sample to be stored at the study centre as back-up.

p38 and JNK = tested on: p38 and JNK; set-up: method as in Banerji, et al.; conditions: protocol background; ref Banerji, et al.; cited from earlier work
[5] = tested on: patients with advanced cancer; set-up: method as in Banerji, et al.; conditions: ref Banerji, et al., cited from earlier work
[6] = tested on: non-small cell lung cancer; set-up: method as in SCART protocol 7.3.1; conditions: combination arm; ref SCART protocol 7.3.1; cited from earlier work
Japanese patients, NSCLC = tested on: Japanese patients, NSCLC; set-up: method as in study D1532C00067; conditions: selumetinib + Docetaxel, ref study D1532C00067; cited from earlier work
[7] = tested on: embryofoetal development and survival; set-up: method as in SCART protocol 7.3.1; conditions: at dose levels that do not induce maternal toxicity in mice; ref SCART protocol 7.3.1; cited from earlier work
[8] = any dose/safety population, 16 patients
[9] = per protocol population, 12 patients

In the case of `Cn1cnc2c(F)c(Nc3ccc(Br)cc3Cl)c(C(=O)NOCCO)cc21` [selumetinib, 6-(4-Bromo-2-chloro-phenylamino)-7-fluro-3-methyl-3 H-benzoimidazole-5-carboxylic acid (2-hydroxy-ethoxy)-amide hydrogen sulphate], the “nature of the DLT” value ([1]; 75 mg bd, single event, possibly related, resolved with no sequelae) is reported as “asymptomatic concurrent increase in serum amylase and raised eosinophils, both grade 3”, the “occurrence of DLT” value ([1]; four patients starting 50 mg bd) is reported as “None” and the “maximum tolerated dose (MTD) / recommended phase II dose (RP2D)” value ([1]; selumetinib orally in combination with ART, highest dose producing one or fewer DLT in six patients) is reported as 75 mg bd. For the same compound, the “occurrence of DLT” value ([1]; six phase I patients starting 75 mg bd) was “one and 1 out of 6”, the “3-month PFS (90% CI)” value ([2]; MTD population, 15 patients) was 66%(42%,82%) and the “6-month PFS (90% CI)” value ([2]; MTD population, 15 patients) was 44% (22%, 64%). For the same compound, the “Median PFS in months (90% CI)” value ([2]; MTD population, 15 patients) was 5.53 (2.53, 12.80) months, the “3-month PFS (90% CI)” value [2, 8] was 62%(39%,78%) and the “6-month PFS (90% CI)” value [2, 8] was 41% (21%, 61%). For the same compound, the “Median PFS in months (90% CI)” value [2, 8] was 4.14 (2.53, 12.80) months, the “3-month PFS (90% CI)” value [2, 9] was 57%(31%,76%) and the “Median PFS in months (90% CI)” value [2, 9] was 3.42 (1.74, -^$) months. For the same compound, the “participants who discontinued selumetinib due to toxicity before completing six cycles” value [3] was 37.5%, the HIV-1 viral load (HIV-1) was “remained undetectable” and the “mean increase in CD4 cell counts” value (CD4 cell counts; cycle 3 day 22 vs screening, per-protocol population, 95% CI: 41.91, 280.63, p = 0.013) was 161.27 cells/mm^3. The “increase in CD4 cell counts” value (CD4 cell counts; cycle 6 day 22 vs pre-treatment, 95% CI: 31.87, 273.47, p = 0.023) was 152.67 cells/mm^3, the “plasma levels compared with other selumetinib studies” value ([4]; phase I, comparison with refs 19-22) was “consistent with published reports from other selumetinib studies” and the “Selumetinib Concentration, 2 Hours Post-Dose” value ([4]; starting dose 50 mg bd) was 201 ng/mL and 304 ng/mL and 238 ng/mL and 274 ng/mL. For the same compound, the “Selumetinib Concentration, 6 Hours Post-Dose” value ([4]; starting dose 50 mg bd) was 26.5 ng/mL and 48.5 ng/mL and 47.9 ng/mL, the “Selumetinib Concentration, 2 Hours Post-Dose” value ([4]; starting dose 75 mg bd) was 1280 ng/mL and 1250 ng/mL and 361 ng/mL and 247 ng/mL and 504 ng/mL and 1040 ng/mL and the “Selumetinib Concentration, 6 Hours Post-Dose” value ([4]; starting dose 75 mg bd) was 249 ng/mL and 180 ng/mL and 284 ng/mL and 452 ng/mL and 66.1 ng/mL. For the same compound, the “Selumetinib Concentration, Day 1 Pre-Dose” value ([4]; starting dose 50 mg bd) was “BLQ”, the “Selumetinib Concentration, Day 1 Pre-Dose” value ([4]; starting dose 75 mg bd) was “BLQ” and the “activity against other kinases including p38 and JNK” value (p38 and JNK) was “inactive, or minimally active”. For the same compound, the “dose identified as both safe and tolerable” value ([5]; selumetinib monotherapy) was 75 mg bd, the “mean decrease in left ventricular ejection fraction (LVEF)” value ([5]; week 8, range -25% to +10%) was -7.2% and the “febrile neutropenia CTCAE grade 3, patients” value [6] was 6/44. The “febrile neutropenia CTCAE grade 4, patients” value [6] was 2/44, the “febrile neutropenia, patients treated” value (Japanese patients, NSCLC) was 3 of 8 and the reproductive toxicology finding [7] was “adverse effects on embryofoetal”.
